The test system of experiment [1] is P. gingivalis NCTC 11834. The experiment is described as follows: Minimum inhibitory concentration (MIC) assay. It is filed as cell-based, Porphyromonas gingivalis. The conditions noted are these: Tables 1, 2. As for the experimental part: (§1) P. gingivalis strains were cultured and maintained on Wilkins-Chalgren Anaerobe Medium (agar and broth) at pH 7.0; all cultures were incubated anaerobically at 37° C. for 5-7 days. This is a standard international method for quantitatively assessing the antimicrobial activity of a compound in a liquid medium. The method used a sterile 96-well microtitre plate, capable of holding about 200 μl of liquid per well. […] The culture medium was as described above. The wells were inoculated with a liquid suspension of freshly grown micro-organism and incubated under the conditions described above. After incubation, the microtitre plate was examined visually (with the aid of a light box) for cloudiness in each well, which would indicate microbial growth. The MIC value was recorded as the lowest concentration of test compound required to inhibit microbial growth, ie the lowest concentration for which the liquid in the well remained clear. The assays were conducted in duplicate (minimum) and included both negative (culture medium with no micro-organisms) and positive (culture medium plus diluting solvent plus micro-organism) controls.

The test system of experiment [2] is P. gingivalis NCTC 11834. The experiment is described as follows: Minimum bactericidal concentration (MBC) assay. The class given is cell-based, Porphyromonas gingivalis. The conditions noted are these: Tables 1, 2. As for the experimental part:
P. gingivalis strains were cultured and maintained on Wilkins-Chalgren Anaerobe Medium (agar and broth) at pH 7.0; all cultures were incubated anaerobically at 37° C. for 5-7 days.
(§2) This assay, normally carried out after an MIC assay, determines the minimum concentration of a compound that is lethal to the micro-organism being tested.
(§3) These samples were then individually sub-cultured on antibiotic-free agar medium, under the incubation conditions described above. Following incubation they were examined visually for microbial growth.
(§4) The ratio of MIC to MBC should ideally be as close to 1 as possible.

The test system of experiment [3] is S. mutans ATCC 25175. The experiment in a line: Minimum inhibitory concentration (MIC) assay. It is filed as cell-based, Streptococcus mutans. The conditions noted are these: Tables 1, 2. As for the experimental part:
as §1, with “S. mutans was” for “P. gingivalis strains were”, “7.0 supplemented with 1 g/L glucose;” for “7.0;”, “incubated” for “incubated anaerobically”, “48 hours in an atmosphere containing 5% CO2. For the formation of biofilms in biofilm disruption assays, however, S. mutans was grown in brain-heart infusion broth supplemented with 5% sucrose.” for “5-7 days.”

The subject of experiment [4] is S. mutans ATCC 25175. The experiment in a line: Minimum bactericidal concentration (MBC) assay. It is filed as cell-based, Streptococcus mutans. The conditions noted are these: Tables 1, 2. As for the experimental part:
S. mutans was cultured and maintained on Wilkins-Chalgren Anaerobe Medium (agar and broth) at pH 7.0 supplemented with 1 g/L glucose; all cultures were incubated at 37° C. for 48 hours in an atmosphere containing 5% CO2. For the formation of biofilms in biofilm disruption assays, however, S. mutans was grown in brain-heart infusion broth supplemented with 5% sucrose.
as §2, §3, §4

Experiment [5] has as its system Acinetobacter baumanni ATCC 19606. The experiment in a line: MBC assay. It is filed as cell-based. The protocol: as §2, §3
Experiment [6] deals with Escherichia coli ATCC 25922. The experiment in a line: MBC assay. It is filed as cell-based. The protocol:
as §2, §3

The test system of experiment [7] is Klebsiella pneumoniae ATCC 700603. The experiment is described as follows: MBC assay. It is filed as cell-based. The protocol: as §2, §3
For experiment [8], the system named is Pseudomonas aeruginosa ATCC 27853. The experiment is described as follows: MBC assay. The class given is cell-based. The protocol: as §2, §3
Experiment [9] concerns P. gingivalis NCTC 11834. The experiment is described as follows: Short-contact kill assay (SCKA). The settings on record: 0.2% (w/v). The class given is cell-based, Porphyromonas gingivalis. As for the experimental part: (§5) This quantitative assay was designed to determine the relative potency of a test compound or combination of test compounds to kill a test micro-organism over a short-contact time period (up to 5 minutes).
(§6) Samples from a culture of micro-organisms (ca. 1×10^8 cfu/ml) prepared in phosphate buffered saline (PBS) containing the relevant test compound(s) were taken at timed intervals (between 0 and 5 minutes), 10-fold serially diluted in PBS and then inoculated onto agar plates in triplicate. A culture containing only the solvent(s) used to dissolve the test compound(s) acted as a control for the assay (maximum solvent load 2.5% v/v).
(§7) The plates were then incubated as described above and subsequently examined visually for growth. Colonies were counted at an appropriate serial dilution (5-50 individual colonies visible) with the aid of a colony counter. These measurements were then converted to numbers of colony forming units (cfu), using the formula: cfu/ml=number of colonies×serial dilution factor×100 (as only a […] was taken).
(§8) These cfu values were then converted into […] values and plotted graphically against time of sample removal.
(§9) At each time point, samples were assessed in triplicate; the final cfu/ml value was an average (mean) of the three readings.
(§10) SCKAs, as described above, were carried out using TBHQ as the test compound. Chlorhexidine was used as a positive control and 2.5% ethanol as a negative control.
(§11) For the SCKA experiments, the TBHQ and chlorhexidine were both tested at concentrations of 0.2% w/v. The TBHQ was dissolved in ethanol and the chlorhexidine in distilled water. All the experiments were conducted in triplicate.

Experiment [10] has as its system S. mutans ATCC 25175. The experiment in a line: Short-contact kill assay (SCKA). The class given is cell-based, Streptococcus mutans. The conditions noted are these: 0.2% (w/v). The protocol:
as §5, §6, §7, §8, §9, §10, §11

Experiment [11] relates to P. gingivalis 381 biofilm. The experiment in a line: Biofilm disruption assay on hydroxyapatite discs. The class given is cell-based, Porphyromonas gingivalis. The conditions noted are these: 0.2% (w/v). As for the experimental part: (§12) This assay was designed to determine quantitatively the relative potency of a test compound to disrupt (effectively kill) biofilms formed by a test organism on hydroxyapatite (HA) discs. Biofilms were formed on sterile dense ceramic HA discs 7 mm diameter×1.8 mm thick (Clarkson Chromatography) by placing the discs in the appropriate liquid media (as described above) inoculated with the test organism (0.5×10^8 cfu/ml). The HA discs were then incubated at 37° C. for ˜48 hours in a 5% CO2 atmosphere (for S. mutans ATCC 25175) or ˜96 hours under anaerobic conditions (for P. gingivalis 381). Following the incubation period the supernatant was removed from the wells containing the HA discs and the discs were washed x3 with fresh media to ensure all planktonic cells were removed. The HA discs were then transferred to sterile bijoux bottles containing 1 ml of phosphate buffered saline (PBS) plus test compound(s) at the required concentration. After a set time period (usually 2 and/or 5 min), the HA disc was transferred to another sterile bijoux containing 1 ml of fresh growth media. Adherent cells were then harvested by vigorous vortexing for 2 minutes. A sample was then taken, serially diluted 10-fold in fresh growth media and inoculated onto agar plates in triplicate. Untreated HA discs, and HA discs added to PBS containing only the solvents used to dissolve the test compound(s), acted as controls. The plates were then incubated as described above and subsequently examined visually for growth. Colonies were counted at an appropriate serial dilution (5-50 individual colonies visible) with the aid of a colony counter. These measurements were then converted to numbers of colony forming units (cfu), using the formula: cfu/ml=number of colonies×serial dilution factor×100 (as only a 10 μl sample was taken). These cfu values were then converted into log10 values and plotted graphically against time of sample removal. At each time point, samples were assessed in triplicate; the final cfu/ml value was an average (mean) of the three readings. Biofilm disruption assays, as described above, were carried out using TBHQ as the test compound and chlorhexidine as a positive control. The negative control was 5% ethanol. For these experiments, the TBHQ and chlorhexidine were tested at concentrations of 0.2% w/v. The TBHQ was dissolved in ethanol and the chlorhexidine in distilled water. All the experiments were conducted in triplicate.

The test system of experiment [12] is S. mutans ATCC 25175 biofilm. The experiment in a line: Biofilm disruption assay on hydroxyapatite discs. It is filed as cell-based, Streptococcus mutans. The settings on record: 0.2% (w/v). The protocol: as §12
Where [13] appears, read: 1 min, 3.00 = limit of detection.

≈ marks a conversion by molar mass, not a printed value.

On to `CC(C)(C)c1cc(O)ccc1O` [TBHQ, t-butyl-p-hydroquinone], for which the MIC was determined as 0.49 µg/mL (≈ 2.95 µM) in experiment [1] and 31.25 µg/mL (≈ 188 µM) in experiment [3]. Also, the MBC in experiment [2] was 0.98 µg/mL (≈ 5.9 µM); in experiment [4], 31.25 µg/mL (≈ 188 µM); in experiment [5], 500 µg/mL (≈ 3010 µM); in [6], 500 µg/mL (≈ 3010 µM); in experiment [7], 1000 µg/mL (≈ 6020 µM); in experiment [8], greater than 1000 µg/mL. In addition, the MIC/MBC ratio is recorded as 0.5 in [2] and 1 in experiment [4]. The Viable cell counts in [9] (0 min) is listed as 9.32 Log10 cfu/ml; in experiment [9] (0.5 min), 6.50 Log10 cfu/ml; in experiment [9] (setting [13]) it was “*3.00 Log10 cfu/ml”; in experiment [10] (0 min), 7.64 Log10 cfu/ml; in experiment [10] (0.5 min, 3.00 = limit of detection), 7.56 Log10 cfu/ml; in [10] (setting [13]) it was 7.36 Log10 cfu/ml. In addition, the Viable cell counts in experiment [11] (0 min) is 7.74 Log10 cfu/ml; in [11] (2 min), 6.52 Log10 cfu/ml; in experiment [11] (5 min, 2.00 = limit of detection), “*2.00 Log10 cfu/ml”; in experiment [12] (0 min) it was 6.36 Log10 cfu/ml; in [12] (2 min), 6.52 Log10 cfu/ml; in experiment [12] (5 min), 6.24 Log10 cfu/ml.

Usually MIC stands for the least concentration at which growth counts as inhibited. Broadly, the MBC is the smallest concentration meeting the test's criterion for killing. High values mean less potent killing, low ones more potent killing.

Values taken from patent US20100310478A1, “SUBSTITUTED BENZOQUINONES AND HYDROQUINONES IN THE TREATMENT OF PERIODONTAL DISEASES” (priority 2007, published 2010).
